Biological target: PRMT5/MEP50 protein complex (Homo sapiens (Human), UniProt O14744)
Test: PRMT5 biochemical assay (3H-SAM methylation of H4(1-21) peptide, filter plate scintillation counting)
Conditions: PRMT5 enzyme inhibition; 10 nM PRMT5/MEP50 complex, 200 nM H4(1-21) peptide, 1 uM SAM, 25 minute incubation at room temperature
Method: Following dilution, 1 ul was added to an empty 96-well microtiter plate. PRMT5/MEP50 protein complex was combined with H4(1-21) peptide ([…]) in PRMT5 assay buffer (50 mM Tris pH 8.5, 50 mM NaCl, 5 mM MgCl2, 1 mM EDTA, 1 mM TCEP) and 44 ul was added to the microtiter plate containing compound. S-Adenosyl-L-methionine (SAM) was prepared by combining ^3H labelled SAM with unlabelled SAM in PRMT5 assay buffer such that the final SAM concentration was 10 uM and the specific activity was 0.2 uCi/ul. The reaction was initiated by adding 5 ul of SAM stock to the microtiter plate. The final reaction conditions were 10 nM PRMT5/MEP50 complex, 200 nM peptide and 1 uM SAM. Following a 25 minute incubation at room temperature, the reaction was stopped with the addition of 100 uL of 20% TCA. The 3H-peptide product was captured using a 96-well filter plate (MSIPN4B, Millipore) and washed 5 times with PBS buffer. Scintillation fluid (100 ul) was added to the dried filter plate and counted in a liquid scintillation counter. IC50 values were determined by fitting the data to the standard 4-parameter dose response equation using Pfizer proprietary software.
In the final construct PRMT5 ORF was under control of polyhedrin promoter (polH) while MEP50 ORF was under control of p10 promoter.
Viruses were generated using standard Bac-to-Bac viral generation protocols (Life Technologies) and amplified to high-titer passage two (P2) stocks. Protein over expression was conducted in exponentially growing Sf21 cells infected at 2×106 with P2 viral stock at MOI=1 of PRMT5-Mep50 dual construct virus and Mep50 construct virus at 1:1 ratio. The co-expression protocol was used to supplement additional Mep50 for FlagPRMT5-Mep50 heterodimer formation. Cells were harvested at 72 h post infection by centrifugation and frozen pellet was stored at −80° C.
FlagPRMT5-Mep50 complex was purified from cell lysate using Flag affinity chromatography. Cell were lyzed in 50 mM Tris 7.5, 200 mM NaCl, 10% glycerol, 0.25 mM TCEP supplemented with EDTA-free protease inhibitor cocktail (Roche). 1.5 ml of lysis buffer was added per 1 g of frozen pellet. The clarified lysate was obtained by centrifugation of cell lysate at 10,000 g for 1 h at 4 C. 5 ml of Anti-FLAG M2 Agarose (Sigma) […] was added to the clarified lysate to isolate FlagPRMT5-Mep50. Following batch binding for 3 h at 4 C, Flag resin bound to FlagPRMT5-Mep50 washed with 20 column volumes (CV) of 50 mM Tris 7.5, 200 mM NaCl, 10% glycerol, 0.25 mM TCEP followed by elution of FlagPRMT5-Mep50 complex using 3 CV of 50 mM Tris 7.5, 200 mM NaCl, 10% glycerol, 0.25 mM TCEP supplemented with 200 ug/ml of FLAG Peptide ([…]). […] Peak fractions containing FlagPRMT5-Mep50 complex were concentrated to 1.6 mg/ml, flash frozen in small aliquots using liquid nitrogen and stored at −80° C.

PRMT5/MEP50 protein complex, sequence (O14744 other isoform, or with tags, fused parts or gaps): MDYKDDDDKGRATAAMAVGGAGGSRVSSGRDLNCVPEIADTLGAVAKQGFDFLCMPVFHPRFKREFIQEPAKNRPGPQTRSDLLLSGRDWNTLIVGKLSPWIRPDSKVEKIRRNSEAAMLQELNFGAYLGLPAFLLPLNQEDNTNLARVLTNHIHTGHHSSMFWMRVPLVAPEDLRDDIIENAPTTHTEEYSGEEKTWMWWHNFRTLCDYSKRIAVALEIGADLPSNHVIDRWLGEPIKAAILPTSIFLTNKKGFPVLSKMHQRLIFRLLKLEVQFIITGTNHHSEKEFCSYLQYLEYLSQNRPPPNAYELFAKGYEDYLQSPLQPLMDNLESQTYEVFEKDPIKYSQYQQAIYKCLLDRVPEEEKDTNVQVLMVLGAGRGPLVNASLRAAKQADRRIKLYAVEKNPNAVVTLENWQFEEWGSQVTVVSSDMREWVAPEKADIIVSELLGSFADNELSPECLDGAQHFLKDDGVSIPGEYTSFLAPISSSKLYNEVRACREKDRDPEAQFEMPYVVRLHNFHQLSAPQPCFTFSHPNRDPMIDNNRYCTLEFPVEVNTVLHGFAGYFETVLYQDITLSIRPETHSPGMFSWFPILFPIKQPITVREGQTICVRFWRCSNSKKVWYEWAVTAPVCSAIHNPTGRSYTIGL
PRMT5/MEP50 protein complex, sequence (Q9BQA1 whole entry partner): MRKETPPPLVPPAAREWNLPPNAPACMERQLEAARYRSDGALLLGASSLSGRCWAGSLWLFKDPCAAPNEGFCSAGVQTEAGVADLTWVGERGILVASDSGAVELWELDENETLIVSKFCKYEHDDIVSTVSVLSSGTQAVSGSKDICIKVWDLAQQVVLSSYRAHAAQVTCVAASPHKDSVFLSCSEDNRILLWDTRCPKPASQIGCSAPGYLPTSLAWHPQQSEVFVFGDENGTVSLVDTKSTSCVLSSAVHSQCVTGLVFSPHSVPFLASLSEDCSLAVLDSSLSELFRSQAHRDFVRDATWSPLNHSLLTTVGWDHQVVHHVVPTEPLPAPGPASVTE

| SMILES | IC50 |
| --- | --- |
| Cc1ncnc2c1ccn2[C@@H]1O[C@@H](c2ccn(C)n2)[C@@H](O)[C@H]1O [Example 77, (2S,3S,4R,5R)-2-(1-methyl-1H-pyrazol-3-yl)-5-(4-methyl-7H-pyrrolo[2,3-d]pyrimidin-7-yl)tetrahydrofuran-3,4-diol] | 24400 nM |
| Cc1ncnc2c1ccn2[C@@H]1OC(C(F)(F)c2ccc(F)cc2)[C@@H](O)[C@H]1O (stereo partly drawn) [Example 59, (3S,4R,5R)-2-(difluoro(4-fluorophenyl)methyl)-5-(4-methyl-7H-pyrrolo[2,3-d]pyrimidin-7-yl)tetrahydrofuran-3,4-diol] | 491 nM |
| N[C@H](c1ccc(F)c(F)c1)[C@H]1O[C@@H](n2ccc3cncnc32)[C@H](O)[C@@H]1O [Example 118, (2R,3S,4R,5R)-2-((R)-amino(3,4-difluorophenyl)methyl)-5-(7H-pyrrolo[2,3-d]pyrimidin-7-yl)tetrahydrofuran-3,4-diol] | 35 nM |
| Cc1ncnc2c1ccn2[C@@H]1O[C@@H](c2cnco2)[C@@H](O)[C@H]1O [Example 69, (2R,3R,4S,5R)-2-(4-methyl-7H-pyrrolo[2,3-d]pyrimidin-7-yl)-5-(oxazol-5-yl)tetrahydrofuran-3,4-diol] | 1050 nM |
| Cc1ncnc2c1ccn2[C@@H]1O[C@H](C(=O)c2ccc(F)c(F)c2)[C@@H](O)[C@H]1O [Example 91, (3,4-difluorophenyl)((2S,3S,4R,5R)-3,4-dihydroxy-5-(4-methyl-7H-pyrrolo[2,3-d]pyrimidin-7-yl)tetrahydrofuran-2-yl)methanone] | 355 nM |
| Cc1ncnc2c1ccn2[C@@H]1O[C@H]([C@H](O)c2ccc(F)c(C(F)(F)F)c2)[C@@H](O)[C@H]1O [Example 18, (2R,3S,4R,5R)-2-((R)-(4-fluoro-3-(trifluoromethyl)phenyl)(hydroxy)methyl)-5-(4-methyl-7H-pyrrolo[2,3-d]pyrimidin-7-yl)tetrahydrofuran-3,4-diol] | 4 nM |
| Cc1ncnc2c1ccn2[C@@H]1O[C@H]([C@H](O)c2ccc3cnn(C)c3c2)[C@@H](O)[C@H]1O [Example 15, (2R,3S,4R,5R)-2-((R)-hydroxy(1-methyl-1H-indazol-6-yl)methyl)-5-(4-methyl-7H-pyrrolo[2,3-d]pyrimidin-7-yl)tetrahydrofuran-3,4-diol] | 39 nM |
| C[C@](O)(c1ccc(Cl)c(F)c1)[C@H]1O[C@@H](n2ccc3c(N)ncnc32)[C@H](O)[C@@H]1O [Example 106, (2R,3R,4S,5S)-2-(4-amino-7H-pyrrolo[2,3-d]pyrimidin-7-yl)-5-((S)-1-(4-chloro-3-fluorophenyl)-1-hydroxyethyl)tetrahydrofuran-3,4-diol] | 79 nM |
| Cc1nc(N)nc2c1ccn2[C@@H]1O[C@@H](c2ccccc2)[C@@H](O)[C@H]1O [Example 68, (2R,3R,4S,5S)-2-(2-amino-4-methyl-7H-pyrrolo[2,3-d]pyrimidin-7-yl)-5-phenyltetrahydrofuran-3,4-diol] | 5500 nM |
| Nc1ncnc2c1c(F)cn2[C@@H]1O[C@@H](c2ccccc2)[C@@H](O)[C@H]1O [Example 67, (2R,3R,4S,5S)-2-(4-amino-5-fluoro-7H-pyrrolo[2,3-d]pyrimidin-7-yl)-5-phenyltetrahydrofuran-3,4-diol] | 1560 nM |
| Cc1ncnc2c1ccn2[C@@H]1O[C@H]([C@@H](F)c2ccc(F)c(F)c2)[C@@H](O)[C@H]1O [Example 93, (2S,3S,4R,5R)-2-((S)-(3,4-difluorophenyl)fluoromethyl)-5-(4-methyl-7H-pyrrolo[2,3-d]pyrimidin-7-yl)tetrahydrofuran-3,4-diol] | 299 nM |
| Cc1ncnc2c1ccn2[C@@H]1O[C@H]([C@H](O)c2ccc3occ(C(F)F)c3c2)[C@@H](O)[C@H]1O [Example 21, (2R,3S,4R,5R)-2-((R)-(3-(difluoromethyl)benzofuran-5-yl)(hydroxy)methyl)-5-(4-methyl-7H-pyrrolo[2,3-d]pyrimidin-7-yl)tetrahydrofuran-3,4-diol] | 33 nM |

Now from value to compound:

| IC50 | SMILES |
| --- | --- |
| 108 nM | Cc1ncnc2c1ccn2[C@@H]1O[C@H]([C@H](O)c2ccc3ncn(C(F)F)c3c2)[C@@H](O)[C@H]1O [Example 22, (2R,3S,4R,5R)-2-((R)-(1-(difluoromethyl)-1H-benzo[d]imidazol-6-yl)(hydroxy)methyl)-5-(4-methyl-7H-pyrrolo[2,3-d]pyrimidin-7-yl)tetrahydrofuran-3,4-diol] |
| 752 nM | Cc1ncnc2c1ccn2[C@@H]1O[C@H]([C@H](O)CCc2ccccc2)[C@@H](O)[C@H]1O [Example 30, (2R,3S,4R,5R)-2-((R)-1-hydroxy-3-phenylpropyl)-5-(4-methyl-7H-pyrrolo[2,3-d]pyrimidin-7-yl)tetrahydrofuran-3,4-diol] |
| 44100 nM | CC[C@H](O)[C@H]1O[C@@H](n2cnc3c(N)ncnc32)[C@H](O)[C@@H]1O [Example 4, (2R,3R,4S,5R)-2-(6-amino-9H-purin-9-yl)-5-((S)-1-hydroxypropyl)tetrahydrofuran-3,4-diol] |
| 23300 nM | Cc1ncnc2c1ccn2[C@@H]1O[C@@H]([C@@H](O)c2ccccc2)[C@@H](O)[C@H]1O [Example 73, (2S,3S,4R,5R)-2-((S)-hydroxy(phenyl)methyl)-5-(4-methyl-7H-pyrrolo[2,3-d]pyrimidin-7-yl)tetrahydrofuran-3,4-diol] |
| 17900 nM | CC(C)C[C@H](O)[C@H]1O[C@@H](n2cnc3c(N)ncnc32)[C@H](O)[C@@H]1O [Example 8, (2R,3R,4S,5R)-2-(6-amino-9H-purin-9-yl)-5-((S)-1-hydroxy-3-methylbutyl)tetrahydrofuran-3,4-diol] |
| 1830 nM | CC(C)C[C@@H](O)[C@H]1O[C@@H](n2cnc3c(N)ncnc32)[C@H](O)[C@@H]1O [Example 7, (2R,3R,4S,5R)-2-(6-amino-9H-purin-9-yl)-5-((R)-1-hydroxy-3-methylbutyl)tetrahydrofuran-3,4-diol] |
| 6310 nM | Cc1ncnc2c1ccn2[C@@H]1O[C@H]([C@@H](O)C(F)(F)F)[C@@H](O)[C@H]1O [Example 57, (2R,3R,4S,5S)-2-(4-methyl-7H-pyrrolo[2,3-d]pyrimidin-7-yl)-5-((R)-2,2,2-trifluoro-1-hydroxyethyl)tetrahydrofuran-3,4-diol] |
| 1730 nM | Cc1ncnc2c1ccn2[C@@H]1O[C@@H]([C@H](C)O)[C@@H](O)[C@H]1O [Example 89, (2S,3S,4R,5R)-2-((S)-1-hydroxyethyl)-5-(4-methyl-7H-pyrrolo[2,3-d]pyrimidin-7-yl)tetrahydrofuran-3,4-diol] |
| 21100 nM | CCC[C@H](O)[C@H]1O[C@@H](n2cnc3c(N)ncnc32)[C@H](O)[C@@H]1O [Example 6, (2R,3R,4S,5R)-2-(6-amino-9H-purin-9-yl)-5-((S)-1-hydroxybutyl)tetrahydrofuran-3,4-diol] |
| 5230 nM | Cc1ncnc2c1ccn2[C@@H]1O[C@@H](C(O)CO)[C@@H](O)[C@H]1O (stereo partly drawn) [Example 79, (2S,3S,4R,5R)-2-(1,2-dihydroxyethyl)-5-(4-methyl-7H-pyrrolo[2,3-d]pyrimidin-7-yl)tetrahydrofuran-3,4-diol] |
| 11 nM | Cc1ncnc2c1ccn2[C@@H]1O[C@H]([C@H](O)C(F)(F)F)[C@@H](O)[C@H]1O [Example 56, (2R,3R,4S,5S)-2-(4-methyl-7H-pyrrolo[2,3-d]pyrimidin-7-yl)-5-((S)-2,2,2-trifluoro-1-hydroxyethyl)tetrahydrofuran-3,4-diol] |
| 517 nM | Cc1ncnc2c1ccn2[C@@H]1O[C@H]([C@H](O)C(C)C)[C@@H](O)[C@H]1O [Example 48, (2R,3S,4R,5R)-2-((R)-1-hydroxy-2-methylpropyl)-5-(4-methyl-7H-pyrrolo[2,3-d]pyrimidin-7-yl)tetrahydrofuran-3,4-diol] |

Reference: patent publication US10428104B2, “Substituted nucleoside derivatives useful as anticancer agents” (Pfizer Inc., priority 2015, dated 2019)
